Experimental data reported in article PMC11747885, “Potent inhibitors of the human RNA ligase Rlig1 highlights its role in RNA integrity maintenance under oxidative cellular stress” (Chemical Science, 2025).
Several values for one entry are separate records, joined by “and”; a condition that tells them apart may be missing. Equal values may be shown once. Marks after values point to notes of the source that are not given here.

Key:
[1] = Cell viability assay of HEK293 cells treated with inhibitors and menadione; assay type: cell-based, human; conditions: human, HEK293 cells, w/o Menadione; for viability at 7.5 µM: 7.5 µM compound; for viability at 15 µM: 15 µM compound; for viability at 30 µM: 30 µM compound; for viability at 60 µM: 60 µM compound
HEK293 cells = experiment: as above; assay type: cell-based, human; conditions: for Mean Diff, (Predicted (LS) mean diff,) w/o menadione - w menadione: 2 way ANOVA, Šídák's multiple comparisons test, normalised viability
in vitro = conditions: human
[2] = 20240508 plate 012, DMSO Ko no Mendione = 100
[3] = 20240508 plate 013, DMSO Ko no Mendione = 100
[4] = 20240515 plate 014, DMSO Ko no Mendione = 100
[5] = 20240515 plate 015, DMSO Ko no Mendione = 100

## Nc1nccc(Nc2ccc(NC(=O)c3ccc(Nc4ncnc5ccccc45)cc3)cc2)n1 [Compound 47]
[1]; [2]
  viability at 7.5 µM: 101%
  viability at 15 µM: 99.1%
  viability at 30 µM: 83.9%
  viability at 60 µM: 74.2%
[1]; [3]
  viability at 7.5 µM: 97.7%
  viability at 15 µM: 99.5%
  viability at 30 µM: 85.9%
  viability at 60 µM: 78.2%
[1]; [4]
  viability at 7.5 µM: 86.8%
  viability at 15 µM: 88.1%
  viability at 30 µM: 80.3%
  viability at 60 µM: 71.3%
[1]; [5]
  viability at 7.5 µM: 90.7%
  viability at 15 µM: 86.8%
  viability at 30 µM: 77.7%
  viability at 60 µM: 70.9%
HEK293 cells; 7.5 µM compound
  Mean Diff, (Predicted (LS) mean diff,) w/o menadione - w menadione: 27.05
HEK293 cells; 7.5 µM compound, w Menadione (40µM), 20240508 plate 012
  Cell viability raw signal, technical replicates: 13447 and 15406 and 23888 and 24895
HEK293 cells; 7.5 µM compound, w Menadione (40µM), 20240508 plate 013
  Cell viability raw signal, technical replicates: 16840 and 14275 and 23542 and 21544
HEK293 cells; 7.5 µM compound, w Menadione (40µM), 20240515 plate 014
  Cell viability raw signal, technical replicates: 21755 and 24259 and 24363 and 21863
HEK293 cells; 7.5 µM compound, w Menadione (40µM), 20240515 plate 015
  Cell viability raw signal, technical replicates: 23813 and 26835 and 27301 and 27718
HEK293 cells; 7.5 µM compound, w/o Menadione, 20240508 plate 012
  Cell viability raw signal, technical replicates: 495890 and 394280 and 400970 and 404470
HEK293 cells; 7.5 µM compound, w/o Menadione, 20240508 plate 013
  Cell viability raw signal, technical replicates: 392490 and 381070 and 376820 and 393330
HEK293 cells; 7.5 µM compound, w/o Menadione, 20240515 plate 014
  Cell viability raw signal, technical replicates: 358610 and 355380 and 351680 and 351260
HEK293 cells; 7.5 µM compound, w/o Menadione, 20240515 plate 015
  Cell viability raw signal, technical replicates: 363930 and 358300 and 404440 and 357100
HEK293 cells; 15 µM compound
  Mean Diff, (Predicted (LS) mean diff,) w/o menadione - w menadione: 26.73
HEK293 cells; 15 µM compound, w Menadione (40µM), 20240508 plate 012
  Cell viability raw signal, technical replicates: 20771 and 17972 and 20655 and 18810
HEK293 cells; 15 µM compound, w Menadione (40µM), 20240508 plate 013
  Cell viability raw signal, technical replicates: 17686 and 14464 and 20096 and 19671
HEK293 cells; 15 µM compound, w Menadione (40µM), 20240515 plate 014
  Cell viability raw signal, technical replicates: 22870 and 22437 and 28706 and 27891
HEK293 cells; 15 µM compound, w Menadione (40µM), 20240515 plate 015
  Cell viability raw signal, technical replicates: 23978 and 24873 and 26687 and 23492
HEK293 cells; 30 µM compound
  Mean Diff, (Predicted (LS) mean diff,) w/o menadione - w menadione: 26.18
HEK293 cells; 30 µM compound, w Menadione (40µM), 20240508 plate 012
  Cell viability raw signal, technical replicates: 17555 and 22131 and 18922 and 17419
HEK293 cells; 30 µM compound, w Menadione (40µM), 20240508 plate 013
  Cell viability raw signal, technical replicates: 13658 and 13606 and 15514 and 16155
HEK293 cells; 30 µM compound, w Menadione (40µM), 20240515 plate 014
  Cell viability raw signal, technical replicates: 15897 and 16266 and 21346 and 20584
HEK293 cells; 30 µM compound, w Menadione (40µM), 20240515 plate 015
  Cell viability raw signal, technical replicates: 19537 and 20556 and 18511 and 24331
HEK293 cells; 30 µM compound, w/o Menadione, 20240508 plate 012
  Cell viability raw signal, technical replicates: 338540 and 348450 and 357680 and 361520
HEK293 cells; 60 µM compound
  Mean Diff, (Predicted (LS) mean diff,) w/o menadione - w menadione: 29.66
HEK293 cells; 60 µM compound, w Menadione (40µM), 20240508 plate 012
  Cell viability raw signal, technical replicates: 68212* and 77972* and 10202 and 14953
HEK293 cells; 60 µM compound, w Menadione (40µM), 20240508 plate 013
  Cell viability raw signal, technical replicates: 97500* and 94661* and 7245 and 13149
HEK293 cells; 60 µM compound, w Menadione (40µM), 20240515 plate 014
  Cell viability raw signal, technical replicates: 23954 and 23288 and 10147 and 14983
HEK293 cells; 60 µM compound, w Menadione (40µM), 20240515 plate 015
  Cell viability raw signal, technical replicates: 24869 and 20588 and 9258 and 15604
HEK293 cells; 60 µM compound, w/o Menadione, 20240508 plate 012
  Cell viability raw signal, technical replicates: 309000 and 323530 and 287920 and 324080
HEK293 cells; 60 µM compound, w/o Menadione, 20240508 plate 013
  Cell viability raw signal, technical replicates: 294060 and 325150 and 301550 and 314910
HEK293 cells; 60 µM compound, w/o Menadione, 20240515 plate 014
  Cell viability raw signal, technical replicates: 295270 and 285610 and 291450 and 291110
HEK293 cells; 60 µM compound, w/o Menadione, 20240515 plate 015
  Cell viability raw signal, technical replicates: 292640 and 290230 and 291370 and 285220
HEK293 cells; inhibitor 24 h, then 40 μM menadione 5 h
  cell viability under oxidative stress (in words): significantly reduced viability only when the cells were stressed
In vitro
  viability at 24 h, 0.234375 µM: 109%
  viability at 24 h, 0.46875 µM: 101%
  viability at 24 h, 0.9375 µM: 102%
  viability at 24 h, 1.875 µM: 102%
